Test results from the NIST ThermoML archive (doi:10.1021/je100679s).

Tests used:
[1] = 101 kPa, Liquid; for electrical conductivity: DDS-307 conductivity meter
[2] = xn = mol fraction of the nth substance listed; conditions: 101 kPa, Liquid, x2 = 0

CCCCCCn1cc[n+](C)c1C.O=S(=O)([N-]S(=O)(=O)C(F)(F)F)C(F)(F)F
[1]
Conditions	electrical conductivity [S/m]	mass density [kg/m3]
293.15 K	–	1358.19
298.15 K	0.108	1353.11
303.15 K	0.158	1348.71
308.15 K	0.213	1344.29
313.15 K	0.271	1339.88
318.15 K	0.319	1335.47
323.15 K	0.369	1331.06
328.15 K	0.426	1326.65
333.15 K	0.48	1322.24

COC(=O)OC [dimethyl carbonate] + CCCCCCn1cc[n+](C)c1C.O=S(=O)([N-]S(=O)(=O)C(F)(F)F)C(F)(F)F
[2]
Conditions	mass density [kg/m3]
293.15 K	1069.92
298.15 K	1063.34
303.15 K	1056.72
308.15 K	1050.07
313.15 K	1043.39
318.15 K	1036.69
323.15 K	1029.94
328.15 K	1023.25
333.15 K	1016.32

COC(=O)OC [dimethyl carbonate]
[1]
Conditions	mass density [kg/m3]
293.15 K	1069.92
298.15 K	1063.34
303.15 K	1056.72
308.15 K	1050.07
313.15 K	1043.39
318.15 K	1036.69
323.15 K	1029.94
328.15 K	1023.25
333.15 K	1016.32
